Molecular target: T1, Deoxyhypusine hydroxylase (Plasmodium falciparum (isolate 3D7)) (UniProt Q8I701)
T1 sequence (whole entry): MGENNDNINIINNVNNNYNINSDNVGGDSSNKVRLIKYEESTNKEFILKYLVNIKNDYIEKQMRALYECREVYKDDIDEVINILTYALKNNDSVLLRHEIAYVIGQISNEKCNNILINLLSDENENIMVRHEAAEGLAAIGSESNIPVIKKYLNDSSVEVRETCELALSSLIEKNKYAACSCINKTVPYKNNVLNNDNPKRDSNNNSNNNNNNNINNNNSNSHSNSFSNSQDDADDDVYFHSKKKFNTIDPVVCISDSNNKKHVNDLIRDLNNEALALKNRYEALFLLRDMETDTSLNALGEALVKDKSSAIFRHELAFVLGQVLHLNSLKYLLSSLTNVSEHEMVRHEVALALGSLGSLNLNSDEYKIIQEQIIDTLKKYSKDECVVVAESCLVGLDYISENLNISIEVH
Experiment: Inhibition of Plasmodium falciparum DOHH expressed in Escherichia coli BL21 cells at 1 mM after 24 hrs by GC/MS analysis relative to control

**Q.** For `c1ccc(Cn2c(/N=N/c3c(Nc4ccccc4)ccc4ccccc34)nc3ccccc32)cc1`, which inhibition is on record?
**A.** Its inhibition is 35.9%.

**Q.** Which inhibition does the source give for `CCOc1ccc(-c2nonc2NC(=O)c2cccc(C)c2)cc1OCC` here?
**A.** Its inhibition is 43.3%.

**Q.** With `COc1ccc(-c2nc3cc(Cc4ccc5[nH]c(-c6ccc(OC)cc6)nc5c4)ccc3[nH]2)cc1` as the compound, how does the inhibition read?
**A.** The inhibition was 38.8%.

Molecular target: T2, Deoxyhypusine hydroxylase (Homo sapiens, UniProt Q9BU89)
T2 sequence (Q9BU89 whole entry): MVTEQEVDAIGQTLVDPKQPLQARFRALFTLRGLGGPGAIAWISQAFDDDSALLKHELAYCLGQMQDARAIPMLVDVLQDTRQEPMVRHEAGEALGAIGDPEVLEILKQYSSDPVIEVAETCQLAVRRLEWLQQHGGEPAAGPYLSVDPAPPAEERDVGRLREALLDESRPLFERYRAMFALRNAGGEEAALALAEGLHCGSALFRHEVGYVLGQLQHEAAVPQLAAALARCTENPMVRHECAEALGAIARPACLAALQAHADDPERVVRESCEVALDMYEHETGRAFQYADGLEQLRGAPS
Experiment: Inhibition of DOHH (unknown origin)

**Q.** For `c1ccc(-c2ccccn2)nc1` [DIPYRIDYL], which IC50 is on record?
**A.** The IC50 was 5 to 200 µM.

**Q.** `Cc1c(O)c(=O)ccn1C` [DEFERIPRONE] was tested. Which IC50 did it give?
**A.** The IC50 was 5 to 200 µM.

**Q.** With `Cc1cc(C2CCCCC2)n(O)c(=O)c1` [CICLOPIROX] as the compound, how does the IC50 read?
**A.** The IC50 was 5 to 200 µM.

**Q.** Which IC50 does the source give for `CC(=O)N(O)CCCCCNC(=O)CCC(=O)N(O)CCCCCNC(=O)CCC(=O)N(O)CCCCCN` [DEFEROXAMINE] here?
**A.** The IC50 was 5 to 200 µM.

**Q.** `N[C@@H](Cn1ccc(=O)c(O)c1)C(=O)O` [L-MIMOSINE] was tested. Which IC50 did it give?
**A.** Its IC50 is 5 to 200 µM.

— ChEMBL document CHEMBL4400514, “Medicinal chemistry of metal chelating fragments in metalloenzyme active sites: A perspective” (Eur J Med Chem, 2019)
